{
  "source": "patent US10815230B2",
  "about": "“Casein kinase 1 delta inhibitor” (ELECTROPHORETICS LIMITED, priority 2015, dated 2020)",
  "assay_in_all_cases": "Kinase selectivity, % remaining activity",
  "format_in_all_cases": "biochemical",
  "details_in_all_cases": "10 μM compound, 10 μM ATP, duplicate, read-out: % of remaining activity (relative to DMSO)",
  "key": {"CK1g1": {"biological_target": "CK1g1 (Homo sapiens, UniProt Q9HCP0)", "sequence (Q9HCP0 whole entry)": "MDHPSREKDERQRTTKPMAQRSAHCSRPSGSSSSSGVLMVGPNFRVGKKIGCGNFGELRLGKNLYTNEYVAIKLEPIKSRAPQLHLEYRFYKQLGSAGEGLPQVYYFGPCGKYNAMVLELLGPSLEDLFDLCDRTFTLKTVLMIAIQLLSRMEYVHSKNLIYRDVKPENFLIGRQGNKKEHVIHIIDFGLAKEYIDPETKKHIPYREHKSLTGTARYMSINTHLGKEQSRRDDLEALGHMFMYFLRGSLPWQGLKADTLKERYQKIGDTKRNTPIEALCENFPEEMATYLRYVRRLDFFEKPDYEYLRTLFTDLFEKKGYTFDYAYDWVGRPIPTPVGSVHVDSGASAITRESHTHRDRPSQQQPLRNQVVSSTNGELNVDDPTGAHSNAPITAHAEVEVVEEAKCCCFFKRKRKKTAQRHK", "procedure": "(§1) A two-tier strategy to determine the selectivity of compound A was applied: first, the compound was tested at a single concentration (in duplicate) to determine the %-remaining activity of the target kinase. Subsequently, the IC50 of compound A and comparative compounds for casein kinase 1 delta were determined.\n(§2) Compounds were tested in single dose duplicate mode at a concentration of 10 μM (in DMSO) and reactions were carried out at 10 μM ATP, Table 3 reports the % of remaining activity (relative to DMSO)."}, "PIM3": {"biological_target": "PIM3 (Homo sapiens, UniProt Q86V86)", "procedure": "as §1, §2"}, "PKA": {"biological_target": "PKA (Homo sapiens, UniProt P17612)", "procedure": "as §1, §2"}, "P38a/MAPK14": {"biological_target": "P38a/MAPK14 (Homo sapiens, UniProt Q16539)", "procedure": "as §1, §2"}, "ALK5/TGFBR1": {"biological_target": "T1, ALK5/TGFBR1 (Homo sapiens, UniProt P36897)", "T1 sequence (P36897 34-503)": "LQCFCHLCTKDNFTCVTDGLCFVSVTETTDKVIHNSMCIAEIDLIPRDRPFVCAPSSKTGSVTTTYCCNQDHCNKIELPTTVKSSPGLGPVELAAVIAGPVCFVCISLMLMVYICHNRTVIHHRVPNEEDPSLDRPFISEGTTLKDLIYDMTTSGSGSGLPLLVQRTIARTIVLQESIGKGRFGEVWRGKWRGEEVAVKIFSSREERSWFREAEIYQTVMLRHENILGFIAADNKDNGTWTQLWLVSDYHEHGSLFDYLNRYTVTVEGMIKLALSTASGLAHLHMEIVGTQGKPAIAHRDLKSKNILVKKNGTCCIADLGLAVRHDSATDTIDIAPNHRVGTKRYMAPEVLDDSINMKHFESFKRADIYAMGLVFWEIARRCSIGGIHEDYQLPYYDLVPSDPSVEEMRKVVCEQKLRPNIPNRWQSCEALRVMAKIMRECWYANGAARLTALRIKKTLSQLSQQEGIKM", "procedure": "as §1, §2"}, "FGFR1": {"biological_target": "FGFR1 (Homo sapiens, UniProt P11362)", "procedure": "as §1, §2"}, "DAPK1": {"biological_target": "DAPK1 (Homo sapiens, UniProt P53355)", "sequence (P53355 whole entry)": "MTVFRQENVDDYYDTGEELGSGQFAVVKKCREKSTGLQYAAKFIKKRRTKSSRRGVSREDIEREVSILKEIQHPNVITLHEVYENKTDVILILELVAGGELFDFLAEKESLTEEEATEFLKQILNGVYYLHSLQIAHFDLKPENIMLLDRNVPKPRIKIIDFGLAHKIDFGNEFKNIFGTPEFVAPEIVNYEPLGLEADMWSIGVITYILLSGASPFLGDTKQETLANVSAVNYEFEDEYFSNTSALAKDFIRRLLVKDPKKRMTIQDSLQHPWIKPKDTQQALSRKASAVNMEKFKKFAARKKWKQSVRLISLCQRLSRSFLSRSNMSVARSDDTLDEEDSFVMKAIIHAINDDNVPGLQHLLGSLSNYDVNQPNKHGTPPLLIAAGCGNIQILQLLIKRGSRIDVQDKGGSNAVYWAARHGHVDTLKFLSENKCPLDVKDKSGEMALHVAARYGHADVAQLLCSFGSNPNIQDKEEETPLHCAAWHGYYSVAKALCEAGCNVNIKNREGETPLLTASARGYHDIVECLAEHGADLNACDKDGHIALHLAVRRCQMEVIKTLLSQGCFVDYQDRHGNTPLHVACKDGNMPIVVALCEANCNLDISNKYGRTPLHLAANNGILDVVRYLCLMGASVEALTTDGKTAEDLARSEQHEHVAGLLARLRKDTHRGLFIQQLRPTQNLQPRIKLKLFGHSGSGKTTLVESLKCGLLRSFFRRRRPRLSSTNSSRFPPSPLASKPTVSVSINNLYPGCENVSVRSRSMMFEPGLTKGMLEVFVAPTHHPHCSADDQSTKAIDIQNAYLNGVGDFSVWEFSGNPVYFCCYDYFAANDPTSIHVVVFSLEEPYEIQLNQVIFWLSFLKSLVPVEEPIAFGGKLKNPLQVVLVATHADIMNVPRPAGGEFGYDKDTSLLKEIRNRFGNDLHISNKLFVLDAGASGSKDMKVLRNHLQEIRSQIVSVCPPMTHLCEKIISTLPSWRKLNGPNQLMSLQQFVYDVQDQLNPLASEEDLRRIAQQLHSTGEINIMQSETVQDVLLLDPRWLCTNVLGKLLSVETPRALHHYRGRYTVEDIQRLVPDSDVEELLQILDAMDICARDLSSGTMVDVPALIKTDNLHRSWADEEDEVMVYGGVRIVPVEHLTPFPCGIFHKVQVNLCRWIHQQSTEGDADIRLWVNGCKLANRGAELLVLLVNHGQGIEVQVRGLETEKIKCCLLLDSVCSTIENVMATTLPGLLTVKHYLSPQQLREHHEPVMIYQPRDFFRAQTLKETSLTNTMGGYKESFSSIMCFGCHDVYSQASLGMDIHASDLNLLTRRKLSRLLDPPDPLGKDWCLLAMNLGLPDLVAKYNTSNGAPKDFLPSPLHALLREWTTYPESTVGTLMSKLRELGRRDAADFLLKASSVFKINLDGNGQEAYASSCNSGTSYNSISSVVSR", "procedure": "as §1, §2"}, "MSK1/RPS6KA5": {"biological_target": "MSK1/RPS6KA5 (Homo sapiens, UniProt O75582)", "sequence (O75582 whole entry)": "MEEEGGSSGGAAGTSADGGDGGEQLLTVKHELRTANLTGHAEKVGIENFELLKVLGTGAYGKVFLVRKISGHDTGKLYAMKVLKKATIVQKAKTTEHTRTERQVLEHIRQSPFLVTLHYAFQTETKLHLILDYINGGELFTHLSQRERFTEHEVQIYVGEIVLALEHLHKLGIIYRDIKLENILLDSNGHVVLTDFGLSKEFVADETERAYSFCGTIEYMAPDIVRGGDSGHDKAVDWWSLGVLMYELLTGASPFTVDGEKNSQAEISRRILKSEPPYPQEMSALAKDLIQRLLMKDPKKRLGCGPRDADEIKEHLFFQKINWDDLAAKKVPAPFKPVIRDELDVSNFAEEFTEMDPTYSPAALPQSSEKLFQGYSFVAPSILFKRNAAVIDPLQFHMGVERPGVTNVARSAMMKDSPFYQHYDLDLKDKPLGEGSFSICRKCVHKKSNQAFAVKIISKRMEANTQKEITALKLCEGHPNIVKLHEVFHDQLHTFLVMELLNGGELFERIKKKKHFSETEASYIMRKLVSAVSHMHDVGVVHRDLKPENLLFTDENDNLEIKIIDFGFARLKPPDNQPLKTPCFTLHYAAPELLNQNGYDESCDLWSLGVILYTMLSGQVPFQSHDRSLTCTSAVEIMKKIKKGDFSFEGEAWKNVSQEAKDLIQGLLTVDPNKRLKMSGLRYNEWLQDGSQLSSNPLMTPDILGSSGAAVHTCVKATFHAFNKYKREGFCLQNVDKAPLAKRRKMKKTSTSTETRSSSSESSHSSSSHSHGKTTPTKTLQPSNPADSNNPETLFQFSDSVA", "procedure": "as §1, §2"}, "JNK2": {"biological_target": "JNK2 (Homo sapiens, UniProt P45984)", "sequence (P45984 whole entry)": "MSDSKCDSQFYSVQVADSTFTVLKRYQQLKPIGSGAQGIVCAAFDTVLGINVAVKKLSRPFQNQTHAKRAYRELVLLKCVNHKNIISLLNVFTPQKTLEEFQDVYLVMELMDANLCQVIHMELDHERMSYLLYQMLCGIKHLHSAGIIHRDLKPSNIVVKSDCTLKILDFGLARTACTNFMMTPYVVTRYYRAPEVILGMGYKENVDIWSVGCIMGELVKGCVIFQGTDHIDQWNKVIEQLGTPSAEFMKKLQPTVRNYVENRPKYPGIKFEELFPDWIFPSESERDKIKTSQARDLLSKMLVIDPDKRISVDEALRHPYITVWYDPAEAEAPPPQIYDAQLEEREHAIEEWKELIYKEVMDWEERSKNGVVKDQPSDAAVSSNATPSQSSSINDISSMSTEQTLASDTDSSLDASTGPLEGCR", "procedure": "as §1, §2"}, "CLK2": {"biological_target": "CLK2 (Homo sapiens, UniProt P49760)", "procedure": "as §1, §2"}, "ABL2/ARG": {"biological_target": "ABL2/ARG (Homo sapiens, UniProt P42684)", "procedure": "as §1, §2"}, "c-Src": {"biological_target": "c-Src (Homo sapiens, UniProt P12931)", "sequence (P12931 whole entry, species assumed)": "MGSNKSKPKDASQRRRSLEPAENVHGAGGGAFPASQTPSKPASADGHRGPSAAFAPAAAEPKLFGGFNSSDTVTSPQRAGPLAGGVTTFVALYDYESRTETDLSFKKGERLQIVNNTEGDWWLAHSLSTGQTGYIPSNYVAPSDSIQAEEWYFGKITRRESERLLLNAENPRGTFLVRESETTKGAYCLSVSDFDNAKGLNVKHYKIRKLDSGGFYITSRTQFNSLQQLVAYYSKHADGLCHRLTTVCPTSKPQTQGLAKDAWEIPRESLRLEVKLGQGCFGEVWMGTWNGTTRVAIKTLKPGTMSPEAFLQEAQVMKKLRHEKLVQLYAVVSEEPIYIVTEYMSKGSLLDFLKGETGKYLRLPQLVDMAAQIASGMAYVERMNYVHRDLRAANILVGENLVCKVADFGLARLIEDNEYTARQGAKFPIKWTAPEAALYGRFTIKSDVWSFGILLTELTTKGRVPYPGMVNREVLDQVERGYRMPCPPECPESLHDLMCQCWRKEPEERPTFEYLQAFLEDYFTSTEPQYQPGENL", "procedure": "as §1, §2"}, "CK1g3": {"biological_target": "CK1g3 (Homo sapiens, UniProt Q9Y6M4)", "procedure": "as §1, §2"}, "PDK1/PDPK1": {"biological_target": "T2, PDK1/PDPK1 (Homo sapiens, UniProt O15530)", "T2 sequence (O15530 1-556)": "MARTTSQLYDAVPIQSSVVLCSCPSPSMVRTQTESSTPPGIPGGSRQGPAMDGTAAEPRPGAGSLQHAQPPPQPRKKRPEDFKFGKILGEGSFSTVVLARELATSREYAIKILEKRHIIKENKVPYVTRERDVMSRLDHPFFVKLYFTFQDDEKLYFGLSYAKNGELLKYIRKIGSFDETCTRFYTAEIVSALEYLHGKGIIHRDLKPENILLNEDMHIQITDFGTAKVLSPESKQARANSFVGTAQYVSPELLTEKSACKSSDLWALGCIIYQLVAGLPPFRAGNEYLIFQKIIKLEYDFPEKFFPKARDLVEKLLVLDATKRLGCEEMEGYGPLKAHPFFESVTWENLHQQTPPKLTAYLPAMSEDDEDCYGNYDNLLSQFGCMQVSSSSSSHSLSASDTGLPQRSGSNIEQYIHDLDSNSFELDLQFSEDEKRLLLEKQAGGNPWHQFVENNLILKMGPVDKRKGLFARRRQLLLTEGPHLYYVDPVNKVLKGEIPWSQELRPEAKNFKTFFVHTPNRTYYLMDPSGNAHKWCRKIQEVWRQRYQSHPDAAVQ", "procedure": "as §1, §2"}, "RIPK2": {"biological_target": "RIPK2 (Homo sapiens, UniProt O43353)", "sequence (O43353 whole entry)": "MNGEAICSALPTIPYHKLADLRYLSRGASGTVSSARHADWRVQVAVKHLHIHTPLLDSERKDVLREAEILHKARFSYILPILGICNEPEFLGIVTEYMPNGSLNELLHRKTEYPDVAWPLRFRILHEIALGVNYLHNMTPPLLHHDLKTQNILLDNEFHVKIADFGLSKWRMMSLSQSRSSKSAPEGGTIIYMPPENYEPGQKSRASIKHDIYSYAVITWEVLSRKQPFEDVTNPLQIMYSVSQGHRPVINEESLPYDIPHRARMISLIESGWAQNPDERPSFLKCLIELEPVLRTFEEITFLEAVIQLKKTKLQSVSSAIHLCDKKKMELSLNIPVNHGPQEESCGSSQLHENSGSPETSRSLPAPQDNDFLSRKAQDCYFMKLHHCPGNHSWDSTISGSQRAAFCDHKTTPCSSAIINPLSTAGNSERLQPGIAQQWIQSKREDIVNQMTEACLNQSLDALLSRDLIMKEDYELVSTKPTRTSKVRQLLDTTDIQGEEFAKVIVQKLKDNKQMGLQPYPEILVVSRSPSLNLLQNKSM", "procedure": "as §1, §2"}, "TNIK": {"biological_target": "TNIK (Homo sapiens, UniProt Q9UKE5)", "procedure": "as §1, §2"}, "CK1e": {"biological_target": "CK1e (Homo sapiens, UniProt P49674)", "procedure": "as §1, §2"}, "YES/YES1": {"biological_target": "YES/YES1 (Homo sapiens, UniProt P07947)", "procedure": "as §1, §2"}, "GSK3B": {"biological_target": "GSK3B (Homo sapiens, UniProt P49841)", "sequence (P49841 whole entry)": "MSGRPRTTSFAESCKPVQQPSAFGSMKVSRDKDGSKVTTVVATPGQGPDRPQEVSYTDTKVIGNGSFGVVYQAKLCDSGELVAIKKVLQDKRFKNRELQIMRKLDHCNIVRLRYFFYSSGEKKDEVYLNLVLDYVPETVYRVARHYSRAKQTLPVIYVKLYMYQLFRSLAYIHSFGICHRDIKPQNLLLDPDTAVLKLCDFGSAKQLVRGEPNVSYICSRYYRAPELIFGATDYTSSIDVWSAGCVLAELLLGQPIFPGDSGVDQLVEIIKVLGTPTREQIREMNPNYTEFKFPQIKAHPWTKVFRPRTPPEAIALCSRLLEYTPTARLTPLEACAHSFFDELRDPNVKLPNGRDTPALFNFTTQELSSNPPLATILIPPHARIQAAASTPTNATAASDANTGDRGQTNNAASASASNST", "procedure": "as §1, §2"}, "EGFR": {"biological_target": "EGFR (Homo sapiens, UniProt P00533)", "procedure": "as §1, §2"}, "PKCb2": {"biological_target": "PKCb2 (Homo sapiens, UniProt P05771)", "procedure": "as §1, §2"}, "CDK5/p25": {"biological_target": "CDK5/p25 (Homo sapiens, UniProt Q00535)", "procedure": "as §1, §2"}, "CK1g2": {"biological_target": "CK1g2 (Homo sapiens, UniProt P78368)", "sequence (P78368 whole entry, species assumed)": "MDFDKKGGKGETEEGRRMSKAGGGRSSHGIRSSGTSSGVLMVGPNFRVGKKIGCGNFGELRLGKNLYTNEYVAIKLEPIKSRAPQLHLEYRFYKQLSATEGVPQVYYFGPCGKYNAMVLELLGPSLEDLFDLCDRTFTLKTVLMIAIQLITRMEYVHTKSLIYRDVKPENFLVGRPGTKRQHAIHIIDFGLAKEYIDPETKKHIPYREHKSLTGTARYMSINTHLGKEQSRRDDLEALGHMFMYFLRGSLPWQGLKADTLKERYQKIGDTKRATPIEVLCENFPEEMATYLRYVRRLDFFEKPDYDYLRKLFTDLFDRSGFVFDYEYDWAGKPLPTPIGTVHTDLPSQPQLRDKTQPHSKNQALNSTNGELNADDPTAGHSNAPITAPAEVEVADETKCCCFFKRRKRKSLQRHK", "procedure": "as §1, §2"}},
  "data": [
    {"compound": "Nc1ncnc2c1c(COc1cccc(Cl)c1)nn2C1CCOCC1", "note": "[PF4800567, 3-[(3-Chlorophenoxy)methyl]-1-(tetrahydro-2H-pyran-4-yl)-1H-pyrazolo[3,4-d]pyrimidin-4-amine]", "values": [
      {"measurement": "remaining activity at 10 µM", "setting": "CK1g1", "result": 85.1, "unit": "%"},
      {"measurement": "remaining activity at 10 µM", "setting": "PIM3", "result": 116, "unit": "%"},
      {"measurement": "remaining activity at 10 µM", "setting": "PKA", "result": 83, "unit": "%"},
      {"measurement": "remaining activity at 10 µM", "setting": "P38a/MAPK14", "result": 71.2, "unit": "%"},
      {"measurement": "remaining activity at 10 µM", "setting": "ALK5/TGFBR1", "result": 105, "unit": "%"},
      {"measurement": "remaining activity at 10 µM", "setting": "FGFR1", "result": 80.8, "unit": "%"},
      {"measurement": "remaining activity at 10 µM", "setting": "DAPK1", "result": 92.5, "unit": "%"},
      {"measurement": "remaining activity at 10 µM", "setting": "MSK1/RPS6KA5", "result": 104, "unit": "%"},
      {"measurement": "remaining activity at 10 µM", "setting": "JNK2", "result": 96.5, "unit": "%"},
      {"measurement": "remaining activity at 10 µM", "setting": "CLK2", "result": 105, "unit": "%"},
      {"measurement": "remaining activity at 10 µM", "setting": "ABL2/ARG", "result": 68.4, "unit": "%"},
      {"measurement": "remaining activity at 10 µM", "setting": "c-Src", "result": 44, "unit": "%"},
      {"measurement": "remaining activity at 10 µM", "setting": "CK1g3", "result": 88.9, "unit": "%"},
      {"measurement": "remaining activity at 10 µM", "setting": "PDK1/PDPK1", "result": 103, "unit": "%"},
      {"measurement": "remaining activity at 10 µM", "setting": "RIPK2", "result": 47.6, "unit": "%"},
      {"measurement": "remaining activity at 10 µM", "setting": "TNIK", "result": 89.7, "unit": "%"},
      {"measurement": "remaining activity at 10 µM", "setting": "CK1e", "result": 3, "unit": "%"},
      {"measurement": "remaining activity at 10 µM", "setting": "YES/YES1", "result": 15.5, "unit": "%"},
      {"measurement": "remaining activity at 10 µM", "setting": "GSK3B", "result": 114, "unit": "%"},
      {"measurement": "remaining activity at 10 µM", "setting": "EGFR", "result": 68.8, "unit": "%"},
      {"measurement": "remaining activity at 10 µM", "setting": "PKCb2", "result": 88.5, "unit": "%"},
      {"measurement": "remaining activity at 10 µM", "setting": "CDK5/p25", "result": 97.7, "unit": "%"},
      {"measurement": "remaining activity at 10 µM", "setting": "CK1g2", "result": 86, "unit": "%"}
    ]}
  ]
}
